Source: patent US8119568B2, “3-amino-1,2-benzisothiazole compounds for combating animal pest II” (BASF SE, priority 2007, dated 2012)

Experiments:
[1] = tested on: Cotton Aphid (Aphis gossypii); experiment: Cotton aphid (Aphis gossypii) test, infested cotton cotyledons dipped in test solution; type: in vivo; settings: 120 h, determined after 5 days, read-out: mortality of cotton aphid (Aphis gossypii, mixed life stages) in comparison with untreated controls
Experimental: (§1) If not otherwise described, the active compounds were formulated in a mixture of 50 vol.-% acetone:50 vol.-% water. A nonionic surfactant (Kinetic®) was included in the solution at a volume of 0.01% v/v.
(§2) In the following tests, the formulated solutions of the active compounds were diluted to an active ingredient concentration of 300 ppm and the diluted solutions were applied in the below mentioned tests.
Cotton plants at the cotyledon stage were infested prior to treatment by placing a heavily infested leaf from the main aphid colony on top of each cotyledon. The aphids were allowed to transfer overnight and the host leaf was removed. The infested cotyledons were then dipped and agitated in the test solution for 3 seconds and allowed to dry in a fume hood. Test plants were maintained under fluorescent lighting in a 24-hr photoperiod at 25° C. and 20-40% relative humidity. Aphid mortality on the treated plants, relative to mortality on untreated check plants, was determined after 5 days.

[2] = tested on: Southern Armyworm (Spodoptera eridania), 2nd Instar Larvae; experiment: Southern armyworm (Spodoptera eridania) test, Sieva lima bean leaves dipped; type: in vivo; settings: 96 h, 2nd instar larvae on dipped lima bean leaves, at 4 days, read-out: mortality in comparison with untreated controls (southern armyworm)
Experimental: as §2
The active compounds were formulated in 50:50 acetone:water (vol) and 100 ppm Kinetica™ surfactant.
A pair of first true leaves of Sieva lima bean was dipped into the test solution and allowed to dry. The leaves were then placed in a plastic perforated zip enclosure bag and ten 2nd instar larvae were added. At 4 days, observations were made of mortality and reduced feeding.

[3] = tested on: Cowpea Aphid (aphis craccivora); experiment: Cowpea aphid (aphis craccivora) test, colonized potted cowpea plants sprayed; type: in vivo; settings: assessed after 24, 72, and 120 hours, read-out: mortality in comparison with untreated controls (cowpea aphid)
Experimental: as §2
The active compound is dissolved at the desired concentration in a mixture of 1:1 (vol:vol) distilled water:acetone. The test solution is prepared at the day of use.
Potted cowpea plants colonized with approximately 100-150 aphids of various stages were sprayed after the pest population has been recorded. Population reduction was assessed after 24, 72, and 120 hours.

[4] = tested on: Green Peach Aphid (Myzus persicae); experiment: Green peach aphid (Myzus persicae) test, infested bell pepper leaves dipped in test solution; type: in vivo; settings: 120 h, determined after 5 days, read-out: mortality of green peach aphid in comparison with untreated controls
Experimental: as §1, §2
Bell pepper plants at the first true-leaf stage were infested prior to treatment by placing heavily infested leaves from the main aphid colony on top of the treatment plants. The aphids were allowed to transfer overnight to accomplish an infestation of 30-40 aphids per plant and the host leaves were removed. The infested leaves of the test plants were then dipped and agitated in the test solution for 3 seconds and allowed to dry in a fume hood. Test plants were maintained under fluorescent lighting in a 24-hr photoperiod at 25° C. and 20-40% relative humidity. Mortality on the treated plants, relative to mortality on untreated check plants, was determined after 5 days.

[5] = tested on: Diamond Back Moth (plutella xylostella); experiment: Diamond back moth (plutella xylostella) test, Chinese cabbage leaves dipped; type: in vivo; settings: 3rd instar larvae on dipped cabbage leaves, recorded 24, 72, and 120 hours after treatment, read-out: mortality in comparison with untreated controls (diamond back moth)
Experimental: as §2
The active compound is dissolved at the desired concentration in a mixture of 1:1 (vol:vol) distilled water:acteon. The test solution is prepared at the day of use.
Leaves of Chinese cabbage were dipped in test solution and air-dried. Treated cabbage leaves were placed in petri dished lined with moist filter paper and 3rd instar larvae were added. Mortality was recorded 24, 72, and 120 hours after treatment.

| Structure (SMILES) | mortality at 300 ppm [1] | mortality at 300 ppm [3] | mortality at 300 ppm [4] | also measured |
| --- | --- | --- | --- | --- |
| CN(C(=O)c1cc(Br)nn1-c1ncccc1Cl)c1nsc2cccc(OC(F)F)c12 [compound 92] | ≥ 89% | – | – | – |
| O=C(Nc1nsc2cccc(Cl)c12)c1cc(C(F)(F)F)nn1-c1ncccc1Cl [compound 75] | – | – | – | mortality at 300 ppm [2]: > 89% |
| CN(C(=O)c1ccc(C(F)(F)F)nc1)c1nsc2cccc(Cl)c12 [compound 108] | ≥ 89% | > 89% | – | – |
| CCN(C(=O)COC)c1nsc2cccc(OC(F)F)c12 [compound 77] | – | > 89% | ≥ 89% | – |
| CN(C(=O)c1cnccc1C(F)(F)F)c1nsc2cccc(Cl)c12 [compound 106] | ≥ 89% | > 89% | – | – |
| CCN(C(=O)c1cc(C(F)(F)F)nn1-c1ncccc1Cl)c1nsc2cccc(OC)c12 [compound 86] | ≥ 89% | – | – | – |
| CC(=O)N(C)c1nsc2cccc(OC(F)F)c12 [compound 25] | – | – | ≥ 89% | – |
| Cc1cccc2snc(NC(=O)c3cc(C(F)(F)F)nn3-c3ncccc3Cl)c12 [compound 113] | – | – | – | mortality at 300 ppm [5]: > 89%; mortality at 300 ppm [2]: > 89% |
| COc1cccc2snc(N=S(C)C)c12 [compound 125] | ≥ 89% | – | ≥ 89% | – |
| CN(C(=O)c1cnccc1C(F)(F)F)c1nsc2cccc(OC(F)F)c12 [compound 91] | ≥ 89% | – | – | – |
| CCN(C(=O)C(F)(F)F)c1nsc2cccc(OC(F)F)c12 [Compound example 26, N-(4-Difluoromethoxy-benzo[d]isothiazol-3-yl)-N-ethyl-2,2,2-trifluoro-acetamide] | – | – | – | melting point: 176 to 177 °C |
| CCCC(=O)N(CC)c1nsc2cccc(OC(F)F)c12 [compound 118] | ≥ 89% | > 89% | ≥ 89% | – |
| CCN(C(=O)c1cc(C(F)(F)F)nn1-c1ncccc1Cl)c1nsc2cccc(OC(F)F)c12 [compound 81] | – | > 89% | – | – |
| CCN(C(=O)c1ccc(Cl)nc1)c1nsc2cccc(OC(F)F)c12 [compound 83] | – | – | ≥ 89% | – |
| O=C(Nc1nsc2cccc(OC(F)F)c12)c1cc(Br)nn1-c1ncccc1Cl [compound 89] | ≥ 89% | – | – | – |
| COCC(=O)N(C)c1nsc2cccc(OC(F)F)c12 [compound 76] | – | > 89% | ≥ 89% | – |
| CN(C(=O)c1ccc(Cl)nc1)c1nsc2cccc(OC(F)F)c12 [compound 82] | – | > 89% | ≥ 89% | – |
| COc1cccc2snc(N(C)C(=O)c3cnccc3C(F)(F)F)c12 [compound 105] | ≥ 89% | > 89% | – | mortality at 300 ppm [5]: > 89% |
| O=C(Nc1nsc2cccc(Cl)c12)c1cc(Br)nn1-c1ncccc1Cl [compound 74] | – | – | – | mortality at 300 ppm [2]: > 89% |
| COc1cccc2snc(N(C)C(=O)c3cc(Br)nn3-c3ncccc3Cl)c12 [compound 94] | ≥ 89% | > 89% | – | – |
| COCC(=O)N(C)c1nsc2cccc(Cl)c12 [compound 87] | ≥ 89% | > 89% | ≥ 89% | – |
| O=C(Nc1nsc2cccc(Cl)c12)c1ccc(C(F)(F)F)nc1Cl [compound 115] | ≥ 89% | – | – | – |
